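96-well plates; 48 h exposure; 5 concentrations. Endpoints by linear interpolation between flanking doses. Not reached: highest tested concentration assigned. Abbreviation: GI50, concentration required for 50% inhibition of growth.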 Active and inactive are the calls of the source. Rule as the data show it: active = GI50 up to about 1.1 µM and inactive = higher.
Columns and labels:
Experiment in all cases: NCI-60 cell line screen, 48 h
K562 = tested on: K562
MOLT-4 = tested on: MOLT-4
SF-295 = tested on: SF-295
SK-MEL-28 = tested on: SK-MEL-28
UO-31 = tested on: UO-31
LXFL 529 = tested on: LXFL 529
HOP-92 = tested on: HOP-92
U-251 = tested on: U-251
SNB-19 = tested on: SNB-19
SF-268 = tested on: SF-268
OVCAR-3 = tested on: OVCAR-3
RPMI-8226 = tested on: RPMI-8226
RXF 631 = tested on: RXF 631
DLD-1 = tested on: DLD-1
CAKI-1 = tested on: CAKI-1
CCRF-CEM = tested on: CCRF-CEM
SK-MEL-5 = tested on: SK-MEL-5
OVCAR-5 = tested on: OVCAR-5
COLO 205 = tested on: COLO 205
XF498 = tested on: XF498
SNB-78 = tested on: SNB-78
SNB-75 = tested on: SNB-75
NCI-H522 = tested on: NCI-H522
A549 = tested on: A549
SN12C = tested on: SN12C
HCT-116 = tested on: HCT-116
A498 = tested on: A498
SK-OV-3 = tested on: SK-OV-3
UACC-257 = tested on: UACC-257
DMS-114 = tested on: DMS-114
786-0 = tested on: 786-0
KM12 = tested on: KM12
IGROV-1 = tested on: IGROV-1
Malme-3M = tested on: Malme-3M
SF-539 = tested on: SF-539
HCT-15 = tested on: HCT-15
OVCAR-8 = tested on: OVCAR-8
HOP-62 = tested on: HOP-62
DMS-273 = tested on: DMS-273
TK-10 = tested on: TK-10
ACHN = tested on: ACHN
NCI-H460 = tested on: NCI-H460
LOX IMVI = tested on: LOX IMVI
HT-29 = tested on: HT-29
SK-MEL-2 = tested on: SK-MEL-2
EKVX = tested on: EKVX
M14 = tested on: M14
RXF 393 = tested on: RXF 393
M19-MEL = tested on: M19-MEL
NCI-H23 = tested on: NCI-H23
UACC-62 = tested on: UACC-62
SW-620 = tested on: SW-620
HCC 2998 = tested on: HCC 2998
HL-60 = tested on: HL-60
OVCAR-4 = tested on: OVCAR-4
NCI-H226 = tested on: NCI-H226
KM-20L2 = tested on: KM-20L2
HOP-18 = tested on: HOP-18

`O=C1c2ccc(O)cc2C(=O)c2ccc(O)cc21` was tested, and the GI50 (K562) was 50.1 µM (inactive), the GI50 (MOLT-4) was 31.6 µM (inactive) and the GI50 (SF-295) was > 100 µM (inactive). The GI50 (SK-MEL-28) was 78.5 µM (inactive), the GI50 (UO-31) was 24.3 µM (inactive) and the GI50 (LXFL 529) was 87.3 µM (inactive). For the same compound, the GI50 (HOP-92) was 63.1 µM (inactive), the GI50 (U-251) was 49.4 µM (inactive) and the GI50 (SNB-19) was 78.9 µM (inactive). The GI50 (SF-268) was 55.3 µM (inactive), the GI50 (OVCAR-3) was 78.5 µM (inactive) and the GI50 (RPMI-8226) was 42.8 µM (inactive). For the same compound, the GI50 (RXF 631) was 75 µM (inactive), the GI50 (DLD-1) was 38.6 µM (inactive) and the GI50 (CAKI-1) was 32.9 µM (inactive). The GI50 (CCRF-CEM) was 59.3 µM (inactive), the GI50 (SK-MEL-5) was > 100 µM (inactive) and the GI50 (OVCAR-5) was > 100 µM (inactive). For the same compound, the GI50 (COLO 205) was > 100 µM (inactive), the GI50 (XF498) was > 100 µM (inactive) and the GI50 (SNB-78) was > 100 µM (inactive). The GI50 (SNB-75) was 29.6 µM (inactive), the GI50 (NCI-H522) was 32.6 µM (inactive) and the GI50 (A549) was 54.6 µM (inactive). For the same compound, the GI50 (SN12C) was 73.5 µM (inactive), the GI50 (HCT-116) was 39.4 µM (inactive) and the GI50 (A498) was 38.5 µM (inactive). For the same compound, the GI50 (SK-OV-3) was 33.2 µM (inactive), the GI50 (UACC-257) was > 100 µM (inactive) and the GI50 (DMS-114) was 95.9 µM (inactive). For the same compound, the GI50 (786-0) was 42.7 µM (inactive), the GI50 (KM12) was 88.7 µM (inactive) and the GI50 (IGROV-1) was 48.3 µM (inactive). The GI50 (Malme-3M) was 57.4 µM (inactive), the GI50 (SF-539) was 40.9 µM (inactive) and the GI50 (HCT-15) was 52.5 µM. The GI50 (OVCAR-8) was > 100 µM (inactive), the GI50 (HOP-62) was 30.6 µM (inactive) and the GI50 (DMS-273) was 49.2 µM (inactive). For the same compound, the GI50 (TK-10) was 61.8 µM (inactive), the GI50 (ACHN) was 36.9 µM (inactive) and the GI50 (NCI-H460) was 53.2 µM (inactive). The GI50 (LOX IMVI) was 58.1 µM (inactive), the GI50 (HT-29) was > 100 µM (inactive) and the GI50 (SK-MEL-2) was 45.7 µM (inactive). For the same compound, the GI50 (EKVX) was 67.3 µM (inactive), the GI50 (M14) was 58.9 µM (inactive) and the GI50 (RXF 393) was 29.9 µM (inactive). The GI50 (M19-MEL) was > 100 µM (inactive), the GI50 (NCI-H23) was 59.2 µM (inactive) and the GI50 (UACC-62) was 56.8 µM (inactive). The GI50 (SW-620) was 92.5 µM (inactive), the GI50 (HCC 2998) was 46.3 µM (inactive) and the GI50 (HL-60) was 70.5 µM (inactive). For the same compound, the GI50 (OVCAR-4) was > 100 µM (inactive).

`COC(=O)C(C(=O)C(=O)Nc1c(Cl)cc([N+](=O)[O-])cc1Cl)c1nc2cc(C)c(C)cc2nc1O` (stereo not given) was tested, and the GI50 (K562) was > 100 µM (inactive), the GI50 (MOLT-4) was > 100 µM (inactive) and the GI50 (SF-295) was > 100 µM (inactive). The GI50 (UO-31) was > 100 µM (inactive), the GI50 (LXFL 529) was > 100 µM (inactive) and the GI50 (HOP-92) was 47.8 µM (inactive). The GI50 (U-251) was > 100 µM (inactive), the GI50 (SNB-19) was > 100 µM (inactive) and the GI50 (NCI-H226) was > 100 µM (inactive). For the same compound, the GI50 (SF-268) was > 100 µM (inactive), the GI50 (OVCAR-3) was > 100 µM (inactive) and the GI50 (RPMI-8226) was > 100 µM (inactive). For the same compound, the GI50 (RXF 631) was > 100 µM (inactive), the GI50 (DLD-1) was > 100 µM (inactive) and the GI50 (CAKI-1) was > 100 µM (inactive). For the same compound, the GI50 (CCRF-CEM) was > 100 µM (inactive), the GI50 (OVCAR-5) was > 100 µM (inactive) and the GI50 (COLO 205) was > 100 µM (inactive). For the same compound, the GI50 (SNB-78) was > 100 µM (inactive), the GI50 (SNB-75) was 86.5 µM (inactive) and the GI50 (NCI-H522) was > 100 µM (inactive). For the same compound, the GI50 (A549) was > 100 µM (inactive), the GI50 (SN12C) was > 100 µM (inactive) and the GI50 (HCT-116) was > 100 µM (inactive). The GI50 (A498) was 44.9 µM (inactive), the GI50 (SK-OV-3) was > 100 µM (inactive) and the GI50 (UACC-257) was > 100 µM (inactive). For the same compound, the GI50 (DMS-114) was 76.4 µM (inactive), the GI50 (KM-20L2) was > 100 µM (inactive) and the GI50 (786-0) was > 100 µM (inactive). For the same compound, the GI50 (KM12) was > 100 µM (inactive), the GI50 (IGROV-1) was > 100 µM (inactive) and the GI50 (Malme-3M) was > 100 µM (inactive). For the same compound, the GI50 (SF-539) was > 100 µM (inactive), the GI50 (HCT-15) was over 100 µM and the GI50 (OVCAR-8) was > 100 µM (inactive). The GI50 (HOP-62) was > 100 µM (inactive), the GI50 (DMS-273) was > 100 µM (inactive) and the GI50 (TK-10) was > 100 µM (inactive). The GI50 (ACHN) was > 100 µM (inactive), the GI50 (NCI-H460) was > 100 µM (inactive) and the GI50 (LOX IMVI) was > 100 µM (inactive). For the same compound, the GI50 (HT-29) was > 100 µM (inactive), the GI50 (SK-MEL-2) was > 100 µM (inactive) and the GI50 (EKVX) was 38.9 µM (inactive). The GI50 (M14) was > 100 µM (inactive), the GI50 (RXF 393) was > 100 µM (inactive) and the GI50 (M19-MEL) was > 100 µM (inactive). The GI50 (NCI-H23) was > 100 µM (inactive), the GI50 (UACC-62) was 59.2 µM (inactive) and the GI50 (SW-620) was > 100 µM (inactive). The GI50 (HCC 2998) was > 100 µM (inactive), the GI50 (HL-60) was > 100 µM (inactive) and the GI50 (HOP-18) was 72.6 µM (inactive). The GI50 (OVCAR-4) was > 100 µM (inactive).

From ChEMBL document CHEMBL1201862, “PubChem BioAssay data set” (2004)
